“And” between values parts separate entries of the source, which are not always exact repeats. Equal values may be shown once.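 Protocol summary: plate cells (96-well), add compound at 5 concentrations, incubate 48 h, interpolate endpoints linearly. GI50 marks 50% less growth.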 The source made the active and inactive calls. Cut-off read from the data, not from the text of the source: active = GI50 up to about 1.1 µM and inactive = higher.
How the values were obtained:
Experiment in all cases: inhibition of tumour cell growth, NCI panel, 48 h
CCRF-CEM = system: CCRF-CEM
EKVX = system: EKVX
HCT-116 = system: HCT-116
HT-29 = system: HT-29
KM12 = system: KM12
M14 = system: M14
OVCAR-3 = system: OVCAR-3
PC-3 = system: PC-3
RXF 393 = system: RXF 393
SF-295 = system: SF-295
SF-539 = system: SF-539
SK-OV-3 = system: SK-OV-3
SNB-75 = system: SNB-75
SW-620 = system: SW-620
UACC-257 = system: UACC-257
UACC-62 = system: UACC-62
A498 = system: A498
HL-60 = system: HL-60
NCI-H226 = system: NCI-H226
SK-MEL-28 = system: SK-MEL-28

Compound	GI50 (CCRF-CEM)	GI50 (EKVX)	GI50 (HCT-116)	GI50 (HT-29)	GI50 (KM12)	GI50 (M14)	GI50 (OVCAR-3)	GI50 (PC-3)	GI50 (RXF 393)	GI50 (SF-295)	GI50 (SF-539)	GI50 (SK-OV-3)	GI50 (SNB-75)	GI50 (SW-620)	GI50 (UACC-257)	GI50 (UACC-62)	GI50 (A498)	GI50 (HL-60)	GI50 (NCI-H226)	GI50 (SK-MEL-28)
COc1ccc(C/C=C(\C)CCO)cc1	> 100 µM (inactive)	> 100 µM (inactive)	> 100 µM (inactive)	> 100 µM (inactive)	> 100 µM (inactive)	> 100 µM (inactive)	> 100 µM (inactive)	> 100 µM (inactive)	> 100 µM (inactive)	> 100 µM (inactive)	> 100 µM (inactive)	> 100 µM (inactive)	> 100 µM (inactive)	> 100 µM (inactive)	> 100 µM (inactive)	> 100 µM (inactive)	–	–	–	–
CC(=O)Nc1ccc(-c2nnc(SCC(=O)Nc3ccc(Cl)cc3)o2)cc1	3.5 µM (inactive)	21 µM (inactive)	7.74 µM (inactive)	10.6 µM (inactive)	13.7 µM (inactive)	14.5 µM (inactive)	9.06 µM (inactive)	–	10 µM (inactive)	11.3 µM (inactive)	16 µM (inactive)	16.4 µM (inactive)	21.5 µM (inactive)	6.21 µM (inactive)	16.4 µM (inactive)	4.89 µM (inactive)	14.8 µM (inactive)	16.3 µM (inactive)	11.1 µM (inactive)	13.2 µM (inactive)
O=C(/C=C/c1ccccc1O)c1ccccc1Cl	19.3 µM (inactive)	41.6 µM (inactive)	48.6 µM (inactive)	> 100 µM (inactive)	24.6 µM (inactive)	54.5 µM (inactive)	38.1 µM (inactive)	–	43.1 µM (inactive)	> 100 µM (inactive)	44.5 µM (inactive)	45.8 µM (inactive)	14.8 µM (inactive)	35.5 µM (inactive)	> 100 µM (inactive)	67.5 µM (inactive)	90.4 µM (inactive)	15.3 µM (inactive)	> 100 µM (inactive)	> 100 µM (inactive)
COc1cc(OC)c2c(c1)C(=O)C(CC(C)O)=CC2=O (stereo not drawn)	4.22 µM (inactive)	12 µM (inactive)	12.5 µM (inactive)	19.1 µM (inactive)	19.5 µM (inactive)	18.5 µM (inactive)	5.82 µM (inactive)	–	12.7 µM (inactive)	14.2 µM (inactive)	18.4 µM (inactive)	18 µM (inactive)	25.8 µM (inactive)	17.8 µM (inactive)	16.6 µM (inactive)	11.8 µM (inactive)	17.8 µM (inactive)	5.47 µM (inactive)	20.8 µM (inactive)	17.7 µM (inactive)
CCOc1ccccc1NC(=O)C(=O)c1c(O)c2ccc(O)cc2oc1=O	> 100 µM (inactive)	> 100 µM (inactive)	> 100 µM (inactive)	> 100 µM (inactive)	> 100 µM (inactive)	> 100 µM (inactive)	> 100 µM (inactive)	–	> 100 µM (inactive)	> 100 µM (inactive)	> 100 µM (inactive)	> 100 µM (inactive)	> 100 µM (inactive)	> 100 µM (inactive)	> 100 µM (inactive)	> 100 µM (inactive)	> 100 µM (inactive)	> 100 µM (inactive)	> 100 µM (inactive)	> 100 µM (inactive)
COc1c(CC(C)=O)ccc2c1C(=O)c1ccc(C=O)c(OC(C)=O)c1C2=O	3.23 µM (inactive)	23.3 µM (inactive)	11.9 µM (inactive)	13.9 µM (inactive)	14.6 µM (inactive)	12 µM (inactive)	13.1 µM (inactive)	–	4.09 µM (inactive)	21.2 µM (inactive)	7.89 µM (inactive)	55.5 µM (inactive)	20.5 µM (inactive)	12.6 µM (inactive)	14.3 µM (inactive)	4.55 µM (inactive)	27.3 µM (inactive)	5.06 µM (inactive)	15.7 µM (inactive)	11 µM (inactive)
O=C1/C(=C/c2cccc([N+](=O)[O-])c2)Sc2scc(-c3ccc([N+](=O)[O-])cc3)[n+]21	–	18.4 µM (inactive)	16 µM (inactive)	17.4 µM (inactive)	15.2 µM (inactive)	60.8 µM (inactive)	31.6 µM (inactive)	30.7 µM (inactive)	–	14.8 µM (inactive)	23.8 µM (inactive)	69.5 µM (inactive)	11 µM (inactive)	30 µM (inactive)	21.8 µM (inactive)	18.7 µM (inactive)	–	–	26.3 µM (inactive)	25.5 µM (inactive)
Cc1ccc(S(=O)(=O)N/N=C/c2oc(-c3ccncc3)c(-c3ccncc3)c2[N+](=O)[O-])cc1	> 100 µM (inactive)	> 100 µM (inactive)	> 100 µM (inactive)	> 100 µM (inactive)	> 100 µM (inactive)	> 100 µM (inactive)	> 100 µM (inactive)	–	> 100 µM (inactive)	> 100 µM (inactive)	> 100 µM (inactive)	> 100 µM (inactive)	> 100 µM (inactive)	> 100 µM (inactive)	> 100 µM (inactive)	> 100 µM (inactive)	> 100 µM (inactive)	> 100 µM (inactive)	> 100 µM (inactive)	> 100 µM (inactive)
CCN1C(=O)C(=CN)C(=O)N(CC)C1=O	> 100 µM (inactive)	> 100 µM (inactive)	> 100 µM (inactive)	> 100 µM (inactive)	> 100 µM (inactive)	> 100 µM (inactive)	> 100 µM (inactive)	–	> 100 µM (inactive)	> 100 µM (inactive)	> 100 µM (inactive)	> 100 µM (inactive)	14.7 µM (inactive)	> 100 µM (inactive)	> 100 µM (inactive)	> 100 µM (inactive)	> 100 µM (inactive)	> 100 µM (inactive)	> 100 µM (inactive)	> 100 µM (inactive)
CCOc1ccccc1NC(=O)C(C#N)C1=C(Cl)C(=O)c2ccccc2C1=O (stereo not drawn)	0.867 µM (active)	1.5 µM (inactive)	1.95 µM (inactive)	2.29 µM (inactive)	1.72 µM (inactive)	1.68 µM (inactive)	1.6 µM (inactive)	–	1.97 µM (inactive)	1.72 µM (inactive)	2.12 µM (inactive)	26.2 µM (inactive)	2.33 µM (inactive)	1.78 µM (inactive)	1.06 µM (active)	1.83 µM (inactive)	19.8 µM (inactive)	0.486 µM (active)	2.13 µM (inactive)	2.03 µM (inactive)
COC(=O)CCC(NC(=S)N/N=C(\C)c1ccccn1)C(=O)OC (stereo not drawn)	29.6 µM (inactive)	43.6 µM (inactive)	60.8 µM (inactive)	> 100 µM (inactive)	91.6 µM (inactive)	31.6 µM (inactive)	38.8 µM (inactive)	–	35 µM (inactive)	59.2 µM (inactive)	85.7 µM (inactive)	> 100 µM (inactive)	> 100 µM (inactive)	55.3 µM (inactive)	97.5 µM (inactive)	34.8 µM (inactive)	> 100 µM (inactive)	18.5 µM (inactive)	60.7 µM (inactive)	66.7 µM (inactive)
Cc1[nH]c2ccccc2c1C1CC(=O)NC1=O (stereo not drawn)	> 100 µM (inactive)	> 100 µM (inactive)	> 100 µM (inactive)	> 10 µM (inactive)	> 100 µM (inactive)	> 100 µM (inactive)	> 100 µM (inactive)	–	> 100 µM (inactive)	> 100 µM (inactive)	> 100 µM (inactive)	> 100 µM (inactive)	> 100 µM (inactive)	> 100 µM (inactive)	> 100 µM (inactive)	> 100 µM (inactive)	> 100 µM (inactive)	> 100 µM (inactive)	> 100 µM (inactive)	> 100 µM (inactive)
C=CCO[C@H]1CC[C@@]2(C)C(CC[C@]3(C)C2CC=C2[C@@H]4[C@@H](C)C(C)CC[C@]4(C(=O)O)CCC23C)C1(C)C (stereo partly drawn)	13.2 µM (inactive)	21.2 µM (inactive)	12.7 µM (inactive)	16.3 µM (inactive)	16.1 µM (inactive)	17.5 µM (inactive)	15.7 µM (inactive)	–	6.05 µM (inactive)	14.2 µM (inactive)	17 µM (inactive)	16.9 µM (inactive)	15.6 µM (inactive)	18.5 µM (inactive)	16.9 µM (inactive)	14.4 µM (inactive)	17.3 µM (inactive)	7.01 µM (inactive)	18.6 µM (inactive)	15.6 µM (inactive)
CC(=O)OC1CC[C@@]2(C)C(C1)CC(OC(C)=O)[C@@H]1C2CC(OC(C)=O)[C@]2(C)C(C(C)CC=C(c3ccc(Cl)cc3)c3ccc(Cl)cc3)CCC12 (stereo partly drawn)	16.3 µM (inactive)	97.1 µM (inactive)	19.6 µM (inactive)	39 µM (inactive)	64 µM (inactive)	80.4 µM (inactive)	–	23.6 µM (inactive)	–	52.1 µM (inactive)	67.3 µM (inactive)	> 100 µM (inactive)	49.5 µM (inactive)	49.8 µM (inactive)	38.6 µM (inactive)	–	–	4.7 µM (inactive)	–	> 100 µM (inactive)
COc1cccc2c1C(=O)c1c(O)c3c(c(O)c1C2=O)C[C@@](O)(C(=O)CO)C[C@@H]3OC1CC(N)C(O)C(C)O1 (stereo partly drawn)	34.8 nM (active) and 44.9 nM (active)	547 nM (active) and 301 nM (active)	66.5 nM (active) and 72.6 nM (active)	312 nM (active) and 187 nM (active)	254 nM (active) and 366 nM (active)	–	394 nM (active) and 474 nM (active)	237 nM (active) and 255 nM (active)	–	–	–	0.414 µM (active)	–	79.4 nM (active) and 122 nM (active)	215 nM (active) and 337 nM (active)	–	–	60.5 nM (active) and 57 nM (active)	< 43.6 nM (active) and 58.1 nM (active)	–

— ChEMBL document CHEMBL1201862, “PubChem BioAssay data set” (2004)
